Reference: ChEMBL document CHEMBL1132017, “In vitro susceptibility of Helicobacter pylori to trifluoromethyl ketones” (1999)
In brackets after ≈: the same amount, converted by molar mass.

The compounds below were run on Helicobacter pylori (assay: In vitro inhibitory activity evaluated against Helicobacter pylori (HP)).
Type: functional
O=C(c1nc2ccccc2o1)C(F)(F)F gave an MIC50 of over 100 µg/mL. Compound O=C(Cc1ccccn1)C(F)(F)F has an MIC50 of over 100 µg/mL. Work on Cc1ncc([N+](=O)[O-])n1CCO [METRONIDAZOLE] yielded an MIC50 of 74 µg/mL (≈ 432 µM). In the case of Cc1nc(CC(=O)C(F)(F)F)oc1C, the MIC50 is reported as over 100 µg/mL. Work on O=C(Cc1nc2ccccc2s1)C(F)(F)F yielded an MIC50 of 70 µg/mL (≈ 285 µM). With O=C(c1c[nH]c2ccccc12)C(F)(F)F the MIC50 was 12 µg/mL (≈ 56.3 µM). For O=C(Cc1ccccc1)C(F)(F)F, the MIC50 was over 100 µg/mL. CC[C@H]1OC(=O)[C@H](C)[C@@H](O[C@H]2C[C@@](C)(OC)[C@@H](O)[C@H](C)O2)[C@H](C)[C@@H](O[C@@H]2O[C@H](C)C[C@H](N(C)C)[C@H]2O)[C@](C)(O)C[C@@H](C)C(=O)[C@H](C)[C@@H](O)[C@]1(C)O [ERYTHROMYCIN] was tested, and the MIC50 was 1.8 µg/mL (≈ 2.45 µM). In the case of O=C(Cc1nc2ccccc2[nH]1)C(F)(F)F, the MIC50 is reported as 52 µg/mL (≈ 228 µM). In the case of O=C(c1cccs1)C(F)(F)F, the MIC50 is reported as 53 µg/mL (≈ 294 µM). In the case of O=C(c1ccc[nH]1)C(F)(F)F, the MIC50 is reported as over 100 µg/mL. Compound Cn1c(C(=O)C(F)(F)F)cnc1-c1ccccc1 has an MIC50 of over 100 µg/mL. For CC(=O)Cc1nc2ccccc2o1, the MIC50 was 51 µg/mL (≈ 291 µM). With O=C(c1ccccc1)C(F)(F)F the MIC50 was over 100 µg/mL. Work on O=C(Cc1nc2ccccc2o1)C(F)(F)F yielded an MIC50 of 3.6 µg/mL (≈ 15.7 µM). With CC[C@H]1OC(=O)[C@H](C)[C@@H](O[C@H]2C[C@@](C)(OC)[C@@H](O)[C@H](C)O2)[C@H](C)[C@@H](O[C@@H]2O[C@H](C)C[C@H](N(C)C)[C@H]2O)[C@](C)(OC)C[C@@H](C)C(=O)[C@H](C)[C@@H](O)[C@]1(C)O [CLARITHROMYCIN] the MIC50 was 1.9 µg/mL (≈ 2.54 µM).
